Assay results from US9796755B2, “Methods of treating depression and other related diseases” (Northwestern University, priority 2009, dated 2017).
Where two headings read alike, the source gives them in different places. Where a SMILES comes first, the peptide text is derived from it.

What was measured:
GluR1 = test: Total and phosphoserine-845 GluR1 by Western blot in medial prefrontal cortex; assay type: in vivo, rat; settings: 24 hrs after GLYX-13 3 mg/kg IV or ketamine 10 mg/kg IV
Source text: (§1) Total and Phosphoserine-9 glycogen synthase kinase 3β (GSK-3β) were quantified by ELISA according to the manufacturer's instructions (catalog numbers ADI-900-144 and ADI-900-123A, Assay Designs, USA). Total and phosphoserine-845 GluR1 were quantified by Western blot.

rats [1] = test: Drug discrimination in rats trained to discriminate ketamine from saline
Method: Testing was conducted as described previously (Nicholson K L & Balster R L (2009) The discriminative stimulus effects of N-methyl-D-aspartate glycine-site ligands in NMDA antagonist-trained rats. Psychopharmacology (Berl) 203(2):441-451). Adult male Sprague Dawley rats were trained to discriminate ketamine (10 mg/kg IP) from saline. Animals were then tested following various doses of GLYX-13 administration (3-156 mg/kg SC) and the percent of ketamine lever responding and rates of responding were recorded.

NMDA receptor = target: T1, NMDA receptor (Rattus norvegicus, UniProt P35439); test: Pharmacologically isolated NMDAR EPSCs in hippocampal slices (CA1 pyramidal neurons); assay type: cell-based; settings: NMDA receptor current, hippocampal slice assay; read-out: intrinsic activity relative to D-serine (full agonist)
T1 construct: from tissue; host or cells: rat hippocampal slices, CA1 pyramidal neurons
Method: Experiments were conducted on hippocampal slices from 14-18 day old Sprague-Dawley rats. Whole cell recordings were obtained from CA1 pyramidal neurons voltage clamped at −69 mV, in slices perfused with ACSF containing 0 mM [Mg2+] and 3 mM [Ca2+], plus 10 μM bicuculline and 20 μM CNQX to pharmacologically isolate NMDAR-dependent. EPSCs. Following bath applications of varying concentrations of GLYX-13 and D-serine, EPSCs were elicited by stimulating Schaffer collateral fibers with single electrical pulses (80 μs duration) once every 30 s.
Functional affinity, Kp, of GLYX-13 for the NMDAR was estimated using the equiactive concentration null method of Stephenson (Stephenson R. P. (1956) A modification of receptor theory. Br J Pharmacol Chemother 11(4):379-393) as exemplified by Kenakin (Kenakin T. P. (1997) Pharmacologic Analysis of Drug-Receptor Interaction (New York.)) In this analysis concentration-response curves are generated to full agonist, and to the full agonist in the presence of a set concentration of the partial agonist of interest (FIG. 18, Panel B). Equiactive concentrations arc read off the […] of each of the concentration-respouse curves and plotted as the concentration of full agonist [D-serine] alone and in the presence of partial agonist [GLYX-13] that produce equal effect.

β-catenin = test: Total β-catenin protein level in medial prefrontal cortex; assay type: in vivo, rat; settings: 24 hrs after GLYX-13 3 mg/kg IV or ketamine 10 mg/kg IV
[2] = CSF concentration of GLYX-13 after IV administration (LC-MS/MS); assay type: in vivo; settings: male, Sprague Dawley, rat, cerebrospinal fluid (CSF), rats, read-out: Cmax within the CSF compartment
Method: Male Sprague Dawley rats (250-300 g) received intravenous injections of GLYX-13 (3-10 mg/kg), briefly anesthetized with isoflurane, and cerebrospinal fluid (CSF) samples drawn and stored at −70° C. until analysis.
CSF samples were precipitated with internal standard Pro-Thr-Pro-Ser-NH2 (SEQ ID NO: 20) in 400 μl of acetonitrile. Supernatant extract was separated by HPLC (LC-20AD, Shimadzu, Japan) using a Synergi 4μ Hydro-RP 8A column (Phenomenex, USA) with mobile phase of 100 mM ammonium formate with 0.1% formic acid for 0 1 minute followed by acetonitrile with 0.1% formic acid and samples were analyzed by LC-MS/MS (API4000, Applied Biosystems, USA) in ESI positive ion mode and the GLYX-13 (199.1 and 216.1) and IS (202.3) daughter ions quantified by multiple reaction monitoring. The lower limit of quantitation for the assay was 26.3 nM GLYX-13.

[3] = system: rat hippocampal organotypic cultures; test: LTP and LTD in rat hippocampal organotypic cultures; assay type: cell-based; settings: in vitro
rats [4] = test: Conditioned place preference; assay type: in vivo, rat; settings: GLYX-13 10 mg/kg IV; ketamine 10 mg/kg IV
Method: Animals were trained with GLYX-13 (10 mg/kg, IV), ketamine (10 mg/kg, IV), or saline vehicle (1 mL/kg, IV) utilizing an unbiased two-chamber conditioned place preference apparatus.

[5] = system: glycogen synthase kinase 3β (GSK-3β); test: Total and phosphoserine-9 GSK-3β by ELISA in medial prefrontal cortex; assay type: in vivo, rat; settings: 24 hrs after GLYX-13 3 mg/kg IV or ketamine 10 mg/kg IV
Source text: as §1

C[C@@H](O)[C@H](N)C(=O)N1CCC[C@H]1C(=O)N1CCC[C@H]1C(=O)N[C@H](C(N)=O)[C@@H](C)O [GLYX-13, L-threonyl-L-prolyl-L-prolyl-L-threonine amide] (H-TPPT-NH2)
Phosphoserine-845 GluR1/total GluR1 ratio (GluR1): increased | suppression of operant responding (rates of responding) (rats [1]; SC, 3-156 mg/kg): did not suppress operant responding at any dose | ketamine-like discriminative stimulus effects (percentage ketamine-lever responding) (rats [1]; SC, dose range 3-156 mg/kg): did not show any ketamine-like discriminative stimulus effects | therapeutic index (rats [1]; drug discrimination highest dose vs Porsolt active dose 10 mg/kg SC, printed as 170:10): ≥ 17 | effect in the drug discrimination assay (rats [1]; highest dose evaluated, 156 mg/kg SC): essentially without effect | Emax (NMDA receptor): 23% | total β-catenin (β-catenin): reduced | Cmax ([2]; 3 mg/kg IV): 60 nM | Cmax ([2]; 10 mg/kg IV): 200 nM | long-term depression (LTD) [3]: reducing | long-term potentiation (LTP) [3]: markedly elevate | conditioned place preference, an indicator of abuse potential (rats [4]): did not exhibit either of these effects | phosphoserine-9 GSK-3β/total GSK-3β ratio [5]: reduced
